Measured values as given in PubChem BioAssay (NCI).
Where “and” joins values, the source holds several entries; their conditions need not be identical. Equal values may be shown once.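 Following 48 hours of exposure in 96-well plates, responses at five concentrations were used to interpolate endpoints linearly. At the GI50, growth is halved. Definition used: TGI = concentration required for complete inhibition of growth.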

Experiments:
Assay in all cases: NCI anticancer screen, dose series, 48 h
HT29 colon = tested on: HT29 colon
TK-10 renal = tested on: TK-10 renal
SR leukemia = tested on: SR leukemia
RPMI-8226 leukemia = tested on: RPMI-8226 leukemia
NCI-H23 lung = tested on: NCI-H23 lung
CCRF-CEM leukemia = tested on: CCRF-CEM leukemia
SNB-75 CNS = tested on: SNB-75 CNS
A549 NSCLC = tested on: A549 NSCLC
MALME-3M melanoma = tested on: MALME-3M melanoma
NCI-H522 lung = tested on: NCI-H522 lung

Row | Compound | TGI (HT29 colon) [µM] | TGI (TK-10 renal) [µM] | TGI (SR leukemia) [µM] | TGI (RPMI-8226 leukemia) | TGI (NCI-H23 lung) | TGI (CCRF-CEM leukemia) | TGI (SNB-75 CNS) | TGI (A549 NSCLC) | TGI (MALME-3M melanoma) [µM] | TGI (NCI-H522 lung) [µM] | GI50 (TK-10 renal) | GI50 (HT29 colon) | GI50 (SR leukemia) | GI50 (NCI-H23 lung) [µM] | GI50 (NCI-H522 lung) | GI50 (CCRF-CEM leukemia) [µM] | GI50 (SNB-75 CNS) | GI50 (A549 NSCLC) | GI50 (MALME-3M melanoma) | GI50 (RPMI-8226 leukemia)
1 | Oc1ccc2ccccc2c1CCc1c(O)ccc2ccccc12 | 18.6 | 32.5 | 32.6 | 22 µM | 26.1 µM | 25.2 µM | 18.3 µM | 25.3 µM | 26.9 |  |  |  |  |  |  |  |  |  |  | 
2 | CC(=O)OC1C[C@H]2C(OC(=O)c3ccccc3)C3C4(OC(C)=O)COC4C[C@H](OC(C)=O)[C@@]3(C)C(OC(C)=O)[C@H](OC(C)=O)C(=C1C)C2(C)C (stereo partly drawn) | > 100 | > 100 |  | > 100 µM | > 100 µM | > 100 µM | 45.2 µM | > 100 µM | > 100 | 79.2 |  |  |  |  |  |  |  |  |  | 
3 | O=C1Cc2c(-c3ccccc3)cc(-c3ccccc3)nc2-c2ccccc2N1 | 28 | 5.68 |  | > 100 µM | 36.6 µM | > 100 µM | 7.71 µM | 26.6 µM | > 100 | 30.2 | 2.48 µM |  |  |  |  |  |  |  |  | 
4 | O=CC(OC(=O)c1ccccc1)C(OC(=O)c1ccccc1)C(COC(c1ccccc1)(c1ccccc1)c1ccccc1)OC(=O)c1ccccc1 (stereo not drawn) | 26.3 | 50.3 | 4.03 |  | 34.6 µM | 7.26 µM | 22.9 µM | 61.7 µM | 95.2 | 18.7 | 20.4 µM | 11.7 µM | 1.3 µM | 15.4 | 4.72 µM | 2.21 | 10.2 µM | 22.1 µM | 30.3 µM | 
5 | COc1ccc2[nH]c(Cl)c(/C=C3/C(=O)Nc4ccccc43)c2c1 |  | 8.74 |  | 0.591 µM | 0.688 µM | 0.737 µM | 0.659 µM | 5.36 µM | 2.26 | 1.87 | 1.06 µM | 0.316 µM |  | 0.219 | 0.381 µM | 0.216 | 0.252 µM | 1.2 µM | 0.643 µM | 0.213 µM
6 | NC(Cc1ccccc1)C(=O)OCN1C(=O)C2C3C=CC(C2C1=O)C1C2C(=O)N(COC(=O)C(N)Cc4ccccc4)C(=O)C2C31 (stereo not drawn) | > 100 | > 100 | 50.3 | 56.4 µM and 44.7 µM | 38.1 µM and 42.7 µM | 50.3 µM and > 100 µM | 64.6 µM and 62.3 µM | 61.7 µM and 48.7 µM |  |  |  |  |  |  |  |  |  |  |  | 
7 | CN1CCN(CCCOc2cccc3nc(Nc4cc(Cl)cc(Cl)c4)ccc23)CC1 | 2.78 | 3.17 |  | 4.93 µM | 3.32 µM |  |  | 3.55 µM | 3.7 | 3.17 | 1.75 µM | 1.41 µM |  | 1.72 | 1.64 µM |  |  | 1.98 µM | 1.92 µM | 2.17 µM
8 | COc1cc(/C=C/C(=O)c2cccc3ccccc23)cc(OC)c1OC | 14.4 | 27.3 | 73.2 |  | 18.4 µM | 7.27 µM | 23.3 µM | 37 µM | 24.9 |  |  |  |  |  |  |  |  |  |  | 
9 | COC(=O)C(C(=O)C(=O)Nc1ccc(C)cc1)c1nc2ccc([N+](=O)[O-])cc2[nH]c1=O (stereo not drawn) | > 100 | > 100 | > 100 |  | > 100 µM | > 100 µM | > 100 µM | > 100 µM | > 100 | > 100 |  |  |  |  |  |  |  |  |  | 
10 | CCN(C(=O)N1CCN(c2cc3c(cc2F)c(=O)c(C(=O)O)cn3C2CC2)CC1)c1nc(-c2ccccc2)cs1 | > 100 | 53.2 | 9.92 | 8.75 µM | 29.5 µM |  | 16.4 µM | > 100 µM | 9.06 | 7.61 | 3.37 µM | 3.2 µM | 1.54 µM | 2.79 | 2.01 µM |  | 3.66 µM | 3.11 µM | 2.77 µM | 2.41 µM
11 | COc1ccc(C(c2ccccc2C(=O)O)c2ccc(OC)c3ccccc23)c2ccccc12 | 27.5 | 45.3 |  | 20.8 µM |  | > 100 µM |  | 31 µM | 27.9 | 32.7 |  |  |  |  |  |  |  |  |  | 
12 | c1ccc2c(c1)[nH]c1cnc3c4ncccc4[nH]c3c12 | > 100 | > 100 |  | > 100 µM | > 100 µM | > 100 µM | > 100 µM | > 100 µM | > 100 | > 100 |  |  |  |  |  |  |  |  |  | 
13 | CC1=C(C(=O)Nc2cccc(Cl)c2)C(c2ccccc2O)C(C(=O)Nc2cccc(Cl)c2)=C(C)N1 | 35.7 | 39.5 |  | 46 µM | 33.1 µM | 50.2 µM | 43 µM | 43.8 µM | 38.6 | 34.1 |  |  |  |  |  |  |  |  |  | 
14 | Cc1noc2cccc(O)c12 | > 100 | > 100 |  |  | > 100 µM | > 100 µM | > 100 µM | > 100 µM | > 100 | > 100 |  |  |  |  |  |  |  |  |  | 
15 | COc1cccc(/C=N/[N-]C(=O)c2ccncc2)c1[O-].[Mn+2].[OH3+] | > 100 | > 100 | > 100 | > 100 µM | 41.1 µM | 6.26 µM | > 100 µM | > 100 µM | > 100 |  | 18.3 µM | 4.7 µM | 3.63 µM | 8.12 |  | 1.8 | 26.8 µM | 5.69 µM | 25.5 µM | 6 µM
16 | CC(=O)Nc1ccccc1-c1nc2ccccc2nc1-c1ccccc1 | > 100 |  | > 100 | > 100 µM | > 100 µM | > 100 µM | > 100 µM | > 100 µM |  |  |  |  |  |  |  |  |  |  |  | 
17 | CC(=O)N[C@H](C)[C@@H](O)[C@@H](C)[C@@H]1OC(=O)/C=C/C=C(C)\C=C\[C@]2(C)C[C@@H](NS(C)(=O)=O)C=C[C@@H]2/C=C(C)/C=C/[C@H]1C | > 43.5 | > 43.5 | > 43.5 | > 43.5 µM | > 43.5 µM |  |  | > 43.5 µM | > 43.5 | > 43.5 | 0.045 µM and 0.276 µM | 0.00459 µM and 0.00435 µM | 0.00606 µM and 0.00719 µM | 0.0493 | 0.0251 µM and 0.0451 µM |  | 0.00177 µM and 0.00888 µM | 0.0159 µM and 0.00435 µM | 0.0868 µM and 0.0628 µM | 0.00766 µM and 0.0153 µM
18 | O=C1OC(CC(=O)c2ccc(F)cc2)C(Cl)=C1Cl (stereo not drawn) | 32.1 | 91.1 | 79 | > 100 µM | 93.5 µM | > 100 µM |  | > 100 µM | 33.8 | 34.9 |  |  |  |  |  |  |  |  |  | 
19 | CC(Oc1cc2oc(=O)cc(-c3ccccc3)c2cc1Cl)C(=O)O (stereo not drawn) | > 100 | > 100 | > 100 |  | > 100 µM | > 100 µM | > 100 µM | > 100 µM | > 100 | > 100 |  |  |  |  |  |  |  |  |  | 
